The values that follow come from US10597388B2, “Pyridazinone herbicides” (FMC CORPORATION, priority 2014, dated 2020).

Holding throughout (type): in vivo
The subject of assay [1] is crabgrass, large (large crabgrass, Digitaria sanguinalis). In words: Test A greenhouse herbicide test, pre- and postemergence. Particulars: 240 h; for pest or weed control at 1000 g/ha: 1000 g ai/ha; for pest or weed control at 1000 g/ha / pest or weed control at 500 g/ha: 0 to 100 scale; for pest or weed control at 125 g/ha: 125 g ai/ha; for pest or weed control at 500 g/ha: 500 g ai/ha. In outline:
(§1)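 Visual injury ratings, 0 (no effect) to 100 (complete control), versus untreated plants after roughly 10 d in a greenhouse. Compounds, formulated in a surfactant-containing non-phytotoxic solvent, were sprayed on loam–sand soil after sowing (pre) or on one- to two-leaf plants 2–10 cm tall (post).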

The test system of assay [2] is velvetleaf (Abutilon theophrasti). Described as above. Particulars: 240 h; for pest or weed control at 1000 g/ha: 1000 g ai/ha; for pest or weed control at 1000 g/ha / pest or weed control at 500 g/ha: 0 to 100 scale; for pest or weed control at 125 g/ha: 125 g ai/ha; for pest or weed control at 500 g/ha: 500 g ai/ha. Summed up:
as §1

Assay [3] relates to ALOMY, blackgrass (Alopecurus myosuroides). In words: Test F mixtures with commercial herbicides, Post- or Pre-emergence. To be noted: Post-emergence, scale 0-100. Summed up: (§2)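 Visual injury scale 0 (no effect) to 100 (complete control), scored against untreated controls 20 d after pre- or post-emergence treatment of plants grown from seed in Sandy Loam. Test chemicals in non-phytotoxic solvent mixture, dosed in g a.i./ha. Expected additive values: Pa+Pb−(PaPb/100).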

In assay [4] the test system is AMARE, redroot pigweed (Amaranthus retroflexus). The assay is described as above. In outline:
as §2

Assay [5] relates to AMBEL, common ragweed (Ambrosia elatior). The assay is described as above. Summed up:
as §2

In assay [6] the test system is ECHCG, barnyardgrass (Echinochloa crus-galli). Described as above. Summed up:
as §2

Assay [7] concerns GALAP, galium (Galium aparine). Described as above. Particulars: Post-emergence, scale 0-100. In outline:
as §2

The test system of assay [8] is KCHSC, kochia (Kochia scoparia). Described as above. In outline:
as §2

Assay [9] relates to LOLMU, Italian Ryegrass (Lolium multiflorum). The assay is described as above. Summed up: as §2
In assay [10] the test system is SETVI, giant foxtail (Setaria faberii). The assay is described as above. In outline:
as §2

Where [11] appears, read: post-emergence, Postemergence, 0 is no effect, 100 is complete control, read-out: Crabgrass, Large plant response rating.
The mark [12] stands for this setting: pre-emergence, Preemergence, 0 no effect, 100 complete control, read-out: Plant response rating, Crabgrass, Large.
Where [13] appears, read: post-emergence, Postemergence, 0 is no effect, 100 is complete control, read-out: Velvetleaf plant response rating.
Where [14] appears, read: pre-emergence, Preemergence, 0 no effect, 100 complete control, read-out: Plant response rating, Velvetleaf.
[15] abbreviates: Post-emergence, Rate 16 g a.i./ha, scale 0-100.
The mark [16] stands for this setting: Post-emergence, Rate 62 g a.i./ha, scale 0-100.
The mark [17] stands for this setting: Pre-emergence, Rate 16 g a.i./ha, applied alone, 20 d, scale 0 to 100.
[18] abbreviates: Pre-emergence, Rate 62 g a.i./ha, applied alone, 20 d, scale 0 to 100.

Read-outs that look alike come from different tables or passages of the source.

With `Cc1ccc2sc(C)c(-c3c(O)c(C)nn(C)c3=O)c2c1` [Compound 1, 4-(2,5-dimethylbenzo[b]thien-3-yl)-5-hydroxy-2,6-dimethyl-3(2H)-pyridazinone], the pest or weed control at 1000 g/ha amounted to 90% in [1] (setting [11]), 90% in [1] (setting [12]), 100% in [2] (setting [13]) and 100% in [2] (setting [14]). For the same molecule, the entries for the “ALOMY Obsd.” value in [3] (Rate 16 g a.i./ha) and in assay [3] (Rate 62 g a.i./ha) were 0.0 and 35.0, respectively. The “AMARE Obsd.” value is reported as 30.0 in assay [4] (setting [15]), 100.0 in assay [4] (setting [16]), 20 in assay [4] (setting [17]) and 90 in assay [4] (setting [18]). Moreover, the “AMBEL Obsd.” value was found to be 95.0 in assay [5] (setting [15]), 100.0 in assay [5] (setting [16]), 65 in assay [5] (setting [17]) and 90 in assay [5] (setting [18]). In addition, the “ECHCG Obsd.” value in assay [6] (setting [15]) amounted to 0.0; in [6] (setting [16]), 0.0; in assay [6] (setting [17]), 0; in assay [6] (setting [18]) it was 20. In addition, the entries for the “GALAP Obsd.” value in [7] (Rate 16 g a.i./ha) and in assay [7] (Rate 62 g a.i./ha) were 65.0 and 100.0, respectively. The “KCHSC Obsd.” value in [8] (setting [15]) was found to be 60.0; in [8] (setting [16]) it was 100.0; in [8] (setting [17]), 0; in [8] (setting [18]), 25. Also, the “LOLMU Obsd.” value in [9] (setting [15]) was 65.0; in assay [9] (setting [16]), 100.0; in assay [9] (setting [17]), 65; in assay [9] (setting [18]), 100. The “SETVI Obsd.” value is listed as 0.0 in assay [10] (setting [15]), 40.0 in assay [10] (setting [16]), 0 in assay [10] (setting [17]) and 60 in assay [10] (setting [18]).

Consider `Cc1nn(C)c(=O)c(-c2c(C)oc3c(C)cccc23)c1O` [Compound 9, 4-(2,7-dimethyl-3-benzofuranyl)-5-hydroxy-2,6-dimethyl-3(2H)-pyridazinone], for which the pest or weed control at 125 g/ha in assay [1] (post-emergence, Postemergence, visual rating after approx. 10 d, 0 to 100 scale (0 no effect, 100 complete control), read-out: Plant response rating, Crabgrass, Large) is 10%; in [1] (pre-emergence, Preemergence, 0 to 100 scale where 0 is no effect and 100 is complete control, read-out: Crabgrass, Large plant response rating), 20%; in [2] (post-emergence, Postemergence, visual rating after approx. 10 d, 0 to 100 scale (0 no effect, 100 complete control), read-out: Plant response rating, Velvetleaf), 0%; in assay [2] (pre-emergence, Preemergence, 0 to 100 scale where 0 is no effect and 100 is complete control, read-out: Velvetleaf plant response rating), 0%. The pest or weed control at 500 g/ha was determined as 50% in assay [1] (setting [11]), 90% in assay [1] (setting [12]), 10% in [2] (setting [13]) and 0% in assay [2] (setting [14]).
